# Values quoted from earlier work in publication PMC8538057, “Direct Delivery of ANA-TA9, a Peptide Capable of Aβ Hydrolysis, to the Brain by Intranasal Administration” (Pharmaceutics, 2021).
# What was measured:
# aged mice = conditions: i.n. administration; cited from earlier work
# Description: (§1) Nasal drug administration has several advantages over oral or i.v. administration, which include noninvasiveness, self-administration, short onset of action, and higher bioavailability due to the avoidance of hepatic first-pass metabolism. Therefore, interest has grown in i.n. drug administration as a route for the application of drugs, particularly peptides, for systemic delivery. In addition to the above advantages, active pharmaceutical ingredients applied to the nasal cavity can undergo not only systemic absorption but, also, direct delivery to the brain [33, 34, 35, 36]. The brain up ...
# [1] = test system: normal and cognitively impaired rats; conditions: i.n. administration; cited from earlier work
# Description: as §1
# Aβ42 = conditions: also three Aβ fragment peptides, particularly Aβ11–29; cited from earlier work
# Description: Recently, we reported the proteolytic activity of the shorter synthetic peptides JAL-TA9 (YKGSGFRMI) and ANA-TA9 (SKGQAYRMI), derived from the Box A region of the Tob1 and ANA/BTG3 proteins. These peptides cleave Aβ42 and three Aβ fragment peptides, particularly Aβ11–29 originating from the central region, which is considered the core region of Aβ42 aggregation/oligomerization. We gave these peptides the general name Catalytide. Catalytides such as JAL-TA9 and ANA-TA9 are attractive candidate peptide drugs for a novel strategy for preventing and treating AD.
sequence,measurement,setting,value
NAPVSIPQ,effect on anxiety,aged mice,decreases anxiety
same,effect on memory function,[1],improves memory function
"YKGSGFRMI [JAL-TA9, Catalytide (catalytic peptide) … derived from the Box A region of Tob1 protein, cleaves Aβ42]",cleavage of Aβ42 (proteolytic activity),Aβ42,cleave Aβ42
